Data taken from patent US20160193216A1 (Nimbus Iris, Inc., priority 2012, published 2016).

These compounds were tested against T1, IRAK4 (Homo sapiens, UniProt Q9NWZ3) (assay: IRAK-4 activity inhibition assay (Caliper)). Details: 37 μM ATP, 3.5 nM IRAK4.
T1 sequence (Q9NWZ3 1-460): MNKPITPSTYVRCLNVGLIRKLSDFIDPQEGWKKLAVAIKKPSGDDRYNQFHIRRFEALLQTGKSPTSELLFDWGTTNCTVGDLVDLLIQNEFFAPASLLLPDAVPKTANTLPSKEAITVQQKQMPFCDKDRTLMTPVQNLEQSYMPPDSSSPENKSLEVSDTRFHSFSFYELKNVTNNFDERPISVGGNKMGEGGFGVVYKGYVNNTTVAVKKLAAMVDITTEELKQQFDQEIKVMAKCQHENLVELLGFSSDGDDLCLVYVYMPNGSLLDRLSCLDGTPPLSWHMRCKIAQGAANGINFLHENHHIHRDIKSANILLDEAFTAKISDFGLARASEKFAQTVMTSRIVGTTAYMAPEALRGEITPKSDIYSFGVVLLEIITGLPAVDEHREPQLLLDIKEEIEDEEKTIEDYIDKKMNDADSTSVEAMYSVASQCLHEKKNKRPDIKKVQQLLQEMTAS
Format: biochemical

IC50 [µM] | Compound
< 5 | OC[C@@H]1CCc2sc3ncnc(N[C@H]4CC[C@H](N5CCOCC5)CC4)c3c2C1 [Compound I-211, [(12R)-3-[[4-(morpholin-4-yl)cyclohexyl]amino]-8-thia-4,6-diazatricyclo[7.4.0.0[2,7]]trideca-1(9),2,4,6-tetraen-12-yl]methanol]
20 to 50 | CN(C)[C@H]1CC[C@H](Oc2ncnc3sc4c(c23)CN(C(=O)CCCO)CC4)CC1 [Compound I-190, 1-(3-[[4-(dimethylamino)cyclohexyl]oxy]-8-thia-4,6, 12-triazatricyclo[7.4.0.0[2,7]]trideca-1(9),2,4,6-tetraen-12-yl)-4-hydroxybutan-1-one]
< 5 | CN(C)[C@H]1CC[C@H](Oc2ncnc3sc4c(c23)CC(CC(N)=O)CC4)CC1 (single isomer, unassigned) [Compound I-112]
< 5 | C[C@H](O)C[C@H]1CCc2sc3ncnc(N[C@H]4CC[C@H](N(C)C)CC4)c3c21 [Compound I-55]
< 5 | CC[C@]1(N(C)C)CC[C@H](Oc2ncnc3sc4c(c23)[C@@H](CCO)CC4)CC1 [Compound I-91, 2-((R)-4-(((1r,4R)-4-(dimethylamino)-4-ethylcyclohexyl)oxy)-6,7-dihydro-5H-cyclopenta[4,5]thieno[2,3-d]pyrimidin-5-yl)ethanol]
< 5 | CN[C@H]1CC[C@H](Oc2ncnc3sc4c(c23)[C@@H](C[C@@H](O)C(N)=O)CC4)CC1 [Compound I-140, (2R)-2-hydroxy-3-[(3R)-12-[[4-(methylamino)cyclohexyl]oxy]-7-thia-9,11-diazatricyclo[6.4.0.0[2,6]]dodeca-1(8),2(6),9,11-tetraen-3-yl]propanamide]
< 5 | NC(=O)C[C@H]1CCc2sc3ncnc(O[C@H]4CC[C@H](N5CCNCC5)CC4)c3c21 [Compound I-131, 2-[(3R)-12-[[4-(piperazin-1-yl)cyclohexyl]oxy]-7-thia-9,11-diazatricyclo[6.4.0.0[2,6]]dodeca-1(12),2(6),8,10-tetraen-3-yl]acetamide]
< 5 | CN(C)[C@H]1CC[C@H](Oc2ncnc3sc4c(c23)C[C@H](CC(N)=O)CC4)CC1 [Compound I-113, 2-[(12R)-3-[[4-(dimethylamino)cyclohexyl]oxy]-8-thia-4,6-diazatricyclo[7.4.0.0[2,7]]trideca-1(9),2(7),3,5-tetraen-12-yl]acetamide]
< 5 | CCC(O)C[C@@H]1CCc2sc3ncnc(O[C@H]4CC[C@H](N5CCOCC5)CC4)c3c2C1 (stereo partly drawn) [Compound I-183, 1-((R)-4-(((1r,4R)-4-morpholinocyclohexyl)oxy)-5,6,7,8-tetrahydrobenzo[4,5]thieno[2,3-d]pyrimidin-6-yl)butan-2-ol]
< 5 | CS(=O)(=O)N1CCc2sc3ncnc(O[C@H]4CC[C@H](N5CCOCC5)CC4)c3c2C1 [Compound I-187, 12-methanesulfonyl-3-[[4-(morpholin-4-yl)cyclohexyl]oxy]-8-thia-4,6, 12-triazatricyclo[7.4.0.0[2,7]]trideca-1(9),2(7),3,5-tetraene]
< 5 | O=S(=O)(CCO)N1CCc2sc3ncnc(N[C@H]4CC[C@H](N5CCOCC5)CC4)c3c2C1 [Compound I-185, 2-(3-[[4-(morpholin-4-yl)cyclohexyl]amino]-8-thia-4,6,12-triazatricyclo[7.4.0.0[2,7]]trideca-1(9),2(7),3,5-tetraene-12-sulfonyl)ethan-1-ol]
< 5 | CC[C@@H](O)C[C@H]1CCc2sc3ncnc(N[C@H]4CC[C@H](N(C)C)CC4)c3c21 [Compound I-52]
< 5 | CNC(=O)N1CCc2sc3ncnc(O[C@H]4CC[C@H](N(C)C)CC4)c3c2C1 [Compound I-169, 3-[[4-(dimethylamino)cyclohexyl]oxy]-N-methyl-8-thia-4,6,12-triazatricyclo[7.4.0.0[2,7]]trideca-1(9),2(7),3,5-tetraene-12-carboxamide]
< 5 | C=C[C@@H](O)C[C@H]1CCc2sc3ncnc(O[C@H]4CC[C@@](N)(CC)CC4)c3c21 [Compound I-126, (2S)-1-[(3R)-12-[(4-amino-4-ethylcyclohexyl)oxy]-7-thia-9,11-diazatricyclo[6.4.0.0[2,6]]dodeca-1(8),2(6),9,11-tetraen-3-yl]but-3-en-2-ol]
< 5 | NC(=O)[C@H](O)C[C@H]1CCc2sc3ncnc(O[C@H]4CC[C@H](N5CCCCC5)CC4)c3c21 [Compound I-218, (R)-2-hydroxy-3-((R)-4-(((1r,4R)-4-(piperidin-1-yl)cyclohexyl)oxy)-6,7-dihydro-5H-cyclopenta[4,5]thieno[2,3-d]pyrimidin-5-yl)propanamide]
< 5 | CN(C)[C@H]1CC[C@H](Oc2ncnc3sc4c(c23)[C@@H](C[C@H](N)C(N)=O)CC4)CC1 [Compound I-160, (2S)-2-amino-3-[(3R)-12-[[4-(dimethylamino)cyclohexyl]oxy]-7-thia-9,11-diazatricyclo[6.4.0.0[2,6]]dodeca-1(8),2(6),9,11-tetraen-3-yl]propanamide]
5 to 20 | NC(=O)CC[C@@H]1CCCc2sc3ncnc(O[C@H]4CC[C@H](N)CC4)c3c21 [Compound I-154, 3-((S)-4-(((1r,4S)-4-aminocyclohexyl)oxy)-5,6,7,8-tetrahydrobenzo[4,5]thieno[2,3-d]pyrimidin-5-yl)propanamide]
< 5 | CN(C)[C@H]1CC[C@H](Oc2ncnc3sc4c(c23)CN(C(N)=O)CC4)CC1 [Compound I-201, 3-[[4-(dimethylamino)cyclohexyl]oxy]-8-thia-4,6, 12-triazatricyclo[7.4.0.0[2,7]]trideca-1(9),2,4,6-tetraene-12-carboxamide]
< 5 | CC(=O)N1CCc2sc3ncnc(O[C@H]4CC[C@H](N(C)C)CC4)c3c2C1 [Compound I-167]
20 to 50 | CN(C)[C@H]1CC[C@H](Nc2ncnc3sc4c(c23)C(C(=O)NCc2cccnc2)CC4)CC1 (stereo partly drawn) [Compound I-25, 12-[[4-(dimethylamino)cyclohexyl]amino]-N-(pyridin-3-ylmethyl)-7-thia-9,11-diazatricyclo[6.4.0.0̂[2,6]]dodeca-1(12),2(6),8,10-tetraene-3-carboxamide]
< 5 | CCS(=O)(=O)CC1CCc2sc3ncnc(O[C@H]4CC[C@H](N(C)C)CC4)c3c21 (stereo partly drawn) [Compound I-47, 4-([3-[(ethanesulfonyl)methyl]-7-thia-9,11-diazatricyclo[6.4.0.0[2,6]]dodeca-1(12),2(6),8,10-tetraen-12-yl]oxy)-N,N-dimethylcyclohexan-1-amine]
< 5 | CN(C)[C@H]1CC[C@H](Oc2ncnc3sc4c(c23)[C@@H](C[C@@H](O)c2cc[nH]n2)CC4)CC1 [Compound I-98, (R)-2-((R)-4-(((1r,4R)-4-(dimethylamino)cyclohexyl)oxy)-6,7-dihydro-5H-cyclopenta[4,5]thieno[2,3-d]pyrimidin-5-yl)-1-(1H-pyrazol-3-yl)ethanol]
< 5 | CC(O)C[C@@H]1CCc2sc3ncnc(O[C@H]4CC[C@H](N5CCOCC5)CC4)c3c2C1 (stereo partly drawn) [Compound I-182, 1-((R)-4-(((1r,4R)-4-morpholinocyclohexyl)oxy)-5,6,7,8-tetrahydrobenzo[4,5]thieno[2,3-d]pyrimidin-6-yl)propan-2-ol]
< 5 | O=C(O)[C@H]1CCc2sc3ncnc(O[C@H]4CC[C@H](N5CCOCC5)CC4)c3c2C1 [Compound I-234, (12S)-3-[[(1r,4r)-4-(morpholin-4-yl)cyclohexyl]oxy]-8-thia-4,6-diazatricyclo[7.4.0.0[2,7]]trideca-1(9),2(7),3,5-tetraene-12-carboxylic acid]
< 5 | CN(C)[C@H]1CC[C@H](Oc2ncnc3sc4c(c23)[C@@H](CC(O)c2ncco2)CC4)CC1 (stereo in doubt) [Compound I-62, (1S)-2-[(3R)-12-[[4-(dimethylamino)cyclohexyl]oxy]-7-thia-9,11-diazatricyclo[6.4.0.0[2,6]]dodeca-1(8),2(6),9,11-tetraen-3-yl]-1-(1,3-oxazol-2-yl)ethan-1-ol]
< 5 | CC[C@H](C[C@H]1CCc2sc3ncnc(O[C@H]4CC[C@H](N(C)C)CC4)c3c21)OC [Compound I-117, 4-[[(3R)-3-[(2R)-2-methoxybutyl]-7-thia-9,11-diazatricyclo[6.4.0.0[2,6]]dodeca-1(8),2(6),9,11-tetraen-12-yl]oxy]-N,N-dimethylcyclohexan-1-amine]
< 5 | C[C@@H]1COCCN1[C@H]1CC[C@H](Oc2ncnc3sc4c(c23)[C@@H](CC(N)=O)CC4)CC1 [Compound I-227, 2-[(3R)-12-([4-[(3R)-3-methylmorpholin-4-yl]cyclohexyl]oxy)-7-thia-9,11-diazatricyclo[6.4.0.0[2,6]]dodeca-1(8),2(6),9, 11-tetraen-3-yl]acetamide]
< 5 | CN(CCF)[C@H]1CC[C@H](Oc2ncnc3sc4c(c23)[C@@H](CC(N)=O)CC4)CC1 [Compound I-125, 2-((R)-4-(((1r,4R)-4-((2-fluoroethyl)(methyl)amino)cyclohexyl)oxy)-6,7-dihydro-5H-cyclopenta[4,5]thieno[2,3-d]pyrimidin-5-yl)acetamide]
< 5 | CN[C@H]1CC[C@H](Oc2ncnc3sc4c(c23)[C@@H](C[C@@H](C#N)OC)CC4)CC1 [Compound I-80, (2S)-2-methoxy-3-[(3R)-12-[[4-(methylamino)cyclohexyl]oxy]-7-thia-9,11-diazatricyclo[6.4.0.0[2,6]]dodeca-1(8),2(6),9,11-tetraen-3-yl]propanenitrile]
5 to 20 | CN(C)[C@H]1CC[C@H](Oc2ncnc3sc4c(c23)C(CC#N)CC4)CC1 (stereo partly drawn) [Compound I-22, 2-(12-[[4-(dimethylamino)cyclohexyl]oxy]-7-thia-9,11-diazatricyclo[6.4.0.0[2,6]]dodeca-1(8),2(6),9,11-tetraen-3-yl)acetonitrile]
